# Earlier results in US20160300010A1, “METHOD AND SYSTEM FOR PREDICTING SELECTIVE CANCER DRUG TARGETS” (RAMOT AT TEL-AVIV UNIVERSITY LTD., priority 2011, published 2016).
# Test system: human cancer cells
# Conditions: previously shown
structure (smiles),measurement,value
NC(Cn1ccc(=O)c(O)c1)C(=O)O (stereo not shown) [Mimosine],effect on proliferation of human cancer cells,inhibit proliferation of human cancer cells
